Measurements taken from US20240117334A1, “FACTOR B PROTEASES” (Vertex Pharmaceuticals Incorporated, priority 2021, published 2024).

Tests used:
Type in all cases: biochemical
[1] = test system: human Factor B depleted sera with Factor B, rabbit red blood cells; test: Enhanced AP RBC hemolysis assay (Factor B depleted sera with Factor B spiked back); design: unit of the concentration uncertain
Experimental: (§1) Percent lysis was calculated using the following formula: [(OD415 of sample−OD415 EDTA negative control)/(OD415 saline positive control-OD415 EDTA)*100 ] (Table 17A and Table 17B). IC50s were calculated by nonlinear regression (Prism 9, log(inhibitor,bv) vs. response-4 parameter variable slope model) (Table 18A and Table 18B).

[2] = test system: 20% Normal Human Serum, rabbit red blood cells; test: Standard Alternative Pathway (AP) RBC hemolysis assay; design: unit of the concentration uncertain
Experimental: as §1

Human Factor B [3] = molecular target: T1, Human Factor B (Homo sapiens, UniProt P00751); test: Factor B cleavage by KLK5, Factor B ELISA; conditions: 4 μM Factor B, 1 hour at 37° C., two stocks
T1 sequence (P00751 26-764): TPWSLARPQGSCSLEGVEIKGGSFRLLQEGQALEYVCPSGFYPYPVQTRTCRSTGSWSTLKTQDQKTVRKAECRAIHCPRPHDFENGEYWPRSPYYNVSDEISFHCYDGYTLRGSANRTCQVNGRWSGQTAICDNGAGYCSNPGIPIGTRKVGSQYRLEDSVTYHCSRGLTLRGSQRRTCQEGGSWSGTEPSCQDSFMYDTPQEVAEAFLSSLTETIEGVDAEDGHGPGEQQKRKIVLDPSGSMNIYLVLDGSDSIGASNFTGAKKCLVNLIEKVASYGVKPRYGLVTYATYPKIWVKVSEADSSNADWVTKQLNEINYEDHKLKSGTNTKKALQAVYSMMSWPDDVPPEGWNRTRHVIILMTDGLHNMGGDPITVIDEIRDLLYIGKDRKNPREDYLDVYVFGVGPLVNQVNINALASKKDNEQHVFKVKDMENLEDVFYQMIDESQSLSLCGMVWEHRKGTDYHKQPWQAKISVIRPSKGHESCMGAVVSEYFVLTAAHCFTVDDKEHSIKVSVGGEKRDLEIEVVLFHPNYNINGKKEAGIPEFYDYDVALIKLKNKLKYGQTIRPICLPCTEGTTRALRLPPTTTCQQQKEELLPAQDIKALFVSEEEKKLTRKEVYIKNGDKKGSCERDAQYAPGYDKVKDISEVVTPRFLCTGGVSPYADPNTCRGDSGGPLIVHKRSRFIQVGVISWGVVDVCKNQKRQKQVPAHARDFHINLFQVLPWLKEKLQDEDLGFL
Experimental: FIG. 7B depicts a graph showing Factor B cleavage with KLK5 and a chymase-based engineered protease C22S/F173Y/D175N/A226R. Briefly, A digestion reaction is prepared with 4.0 uM of Human Factor B (Complement Technologies) in 20 μL buffer (50 mM Tris pH 7.4/50 mM NaCl/0.01% Tween 20). Different concentrations of KLK5 (400, 200, 100, 50, 25, 12.5, 6.25, 3.125, 1.56, 0.78, and 0.39 with a control at 0.0 nM) are added to 4 μM of factor B and incubated for 1 hour at 37° C. After digestion, 15 μL of the reaction is transferred to a 96 well plate with 1.5 μL of 0.2N HCL. After quenching, the reactions are prepared factor B ELISA.
A Factor B standard curve is made with 800, 533.3, 355.5, 237.0, 158.0, 105.3, 70.2, 46.8, 31.2, 20.8, 0.0 pM in 1% BSA-PBST. A 384 well plate was coated with the monoclonal antibody against human Factor Ba (#A225, Quidel) at 2 μg/mL in carbonate buffer (25 μL/well). […]
The biotinylated monoclonal antibody against human Factor Bb (Quidel) was then added at 0.125 μg/ml to detect the bound Factor B. Streptavidin-HRP was then diluted at 1:200 in blocking buffer (25 μL/well) and the plate was agitated for 30 minutes at room temperature. The plate was developed with ELISABright, (50 μL/well) for 1 minute at room temperature and read in the EnVision plate reader. […]

[4] = test system: Human Factor B digests in human Factor B Depleted Serum, rabbit red blood cells; test: Hemolysis assay with Factor B digests (KLK5 and chymase-based protease); conditions: 4 μM Factor B digested 1 hour at 37° C., 15% serum
Experimental: FIG. 7A depicts a graph showing hemolysis inhibition by KLK5 and compared with a chymase-based engineered protease C22S/F173Y/D175N/A226R. All references in this Example to engineered proteases are depicted in chymotrypsin numbering. The chymotrypsin numbering key for the modified protease domains of engineered proteases are found in Tables 2, 4, and 6 for uPA, MTSP-1, and chymase, respectively. Briefly, a digestion reaction was prepared with 4.0 μM of Human Factor B (Complement Technologies) in 20 μL buffer (50 mM Tris pH 7.4/50 mM NaCl/0.01% Tween 20). Different concentration of the KLK5 protease or the chymase-based engineered protease C22S/F173Y/D175N/A226R (400, 200, 100, 50, 25, 12.5, 6.25, 3.125, 1.56, 0.78, and 0.39 with a control at 0.0 nM) were added to 4 μM of Factor B and incubated for 1 hour at 37° C. After digestion, 6 μL of the reaction was evaluated in a hemolysis assay.
The Factor B digestion reactions were diluted in 20 μL of GVB (Complement Technologies), 10 mM MgCl2 and 8 mM EGTA (GVB/Mg/EGTA). 45 μL of human Factor B Depleted Serum (Complement Technologies) was then added to 5 μL of human Factor B digests to obtain a final volume of 90% serum. In parallel, 50 μL of rabbit red blood cells (Colorado Serum Co.) were diluted into 950 μL of GVB/Mg/EGTA and mixed gently. […] The plate absorbance was read at 415 nm with a spectrophotometer and the EC50 was calculated.

Human Factor B [5] = molecular target: T1, Human Factor B; test: Mass spectrometry identification of Factor B cleavage sites
Experimental: FIG. 9 depicts mass spectrometry (MS) data identifying the cleavage site at 234 Arg within the QQKR/KIV (SEQ ID NO: 9) cleavage site of Factor B by KLK5, and identifying the cleavage site at ^221Asp within the EGVDAE (SEQ ID NO: 13) cleavage site of Factor B by the chymase-based engineered protease C22S/A226R. Briefly, human Factor B (Comptech) was incubated at 2 μM with different concentration of Kallikrein 5 (KLK5, R&D Systems) or the chymase-based engineered protease C22S/A226R at 10 nM or 100 pM for 10 minutes to 1 hour at 37° C. in 20 mM Tris pH 8 buffer with 16-0 or 18-0 water. The reaction was quenched with 20 μM of inhibitor FFR-CMK for 30 minutes at room temperature. Half of the sample was further treated with Rapidgest/chymotrypsin and adjusted to pH 3 by the addition of […] 1% TFA. TCEP (100 mM final concentration) was then added to reduce disulfides for 30 minutes at 37° C. […] of each sample was bound to a Ziptip (Millipore) and eluted with […] 80% ACN-0.1% TFA. After drying in a Speedvac, the samples were re-dissolved in […] of 30% ACN-0.05% TFA. 0.35 mL of the sample was loaded with 0.45 mL of CHCA matrix (10 mg/mL) onto an OptiPlate, and analyzed by MALDI-MS (ABI 4700) in both linear (m/z 2-22k) and reflector (m/z 1500-5400) mode. The tandem MS was carried out on peptides of interest when possible. Two large peptide fragments were detected at […] and 59 kDa. In summary, 100 pM KLK5 cleaves at 1 of 38 Arg in a 10 minute reaction and in 4 out of 38 Arg in a 60 minute reaction (Arg175, Arg193, Arg730 and Arg739). At 10 nM, cleavage was detected in […] in 10 and 60 minute reactions (Arg50, Arg74, Arg94, Arg175, Arg182, Arg193, Arg202, Arg203, Arg259, Arg381, Arg415, Arg658, Arg679, Arg708, Arg710, Arg730, Arg739). The earliest cleavage event was at Arg 730.
The reconstructed ion chromatograms shown in FIG. 9 are of reaction products from Kallikrein-5 (“KLK”), the chymase-based engineered protease C22S/A226R (“chymase-based”), and plasma derived-Factor B (“Fb control”). […] In contrast, KLK5 cleaves Factor B at ^234 Arg (peak at 4.69 minutes, MW 61437).

[6] = concentration 0.33 (unit uncertain)
[7] = concentration 1 (unit uncertain)
[8] = concentration 3 (unit uncertain)
[9] = concentration 10 (unit uncertain)

Row | cleavage of Factor B (ELISA) (Human Factor B [3]) | earliest cleavage event (Human Factor B [5]) | remaining intact Factor B (reconstructed ion chromatogram) (Human Factor B [5]) | number of Arg of Factor B cleaved (Human Factor B [5]; 100 pM, 10 minute reaction) | number of Arg of Factor B cleaved (Human Factor B [5]; 100 pM, 60 minute reaction) | number of Arg of Factor B cleaved (Human Factor B [5]; 10 nM, 10 and 60 minute reactions) | Compound | % Hemolysis [1, 6] [%] | % Hemolysis [1, 7] [%] | % Hemolysis [1, 8] [%] | % Hemolysis [1, 9] [%] | % Hemolysis [2, 6] [%] | % Hemolysis [2, 7] [%] | % Hemolysis [2, 8] [%] | % Hemolysis [2, 9] [%] | inhibition of hemolysis [4]
1 | – | – | – | – | – | – | CCO[C@H]1CCN(Cc2c(OC)cc(C)c3[nH]ccc23)[C@H](c2ccc(C(=O)O)cc2)C1 [LNP023] | 102.50 | 108.48 | 33.94 | 0 | 0 | 1.16 | 0 | 0 | –
2 | effective in cleavage Factor B | Arg 730 | No remaining intact Factor B | 1 of 38 | 4 out of 38 | 18 of 38 | KLK5: Kallikrein-related peptidase 5 protease (R&D Systems) | – | – | – | – | – | – | – | – | effective in inhibition of hemolysis
